Experimental data published in US10369138B2, “Monobactam organic compounds for the treatment of bacterial infections” (Novartis AG, priority 2014, dated 2019).
In brackets after ≈: the same amount, converted by molar mass.

Tests used:
Format in all cases: cell-based
E. coli strain 25922 = experiment: MIC by broth microdilution, E. coli strain 25922; conditions: Escherichia coli, 25922, E. coli strain 25922; read-out: Ec 25922 (MIC)
Method in brief: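 CLSI broth microdilution in cation-adjusted Mueller-Hinton broth, inoculum about 5×10^5 CFU/mL, 10% DMSO from the diluted series, 20 h at 35-37° C. MIC is the lowest concentration preventing visible growth, read by eye and at 600 nm.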

E. coli containing KPC-2 = experiment: MIC by broth microdilution, E. coli containing KPC-2 (Ec KPC2 Iso); conditions: Escherichia coli, read-out: Ec KPC2 Iso (MIC), E. coli containing KPC-2 (carbapenemase from Klebsiella pneumoniae)
Method in brief: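 Host E. coli BW25113 pspB carrying multicopy pBAD18-kan plasmid with constitutive TEM-promoter KPC-2 expression (periplasmic signal sequence); broth microdilution per CLSI in cation-adjusted Mueller-Hinton broth, inoculum ~5×10^5 CFU/mL, compounds twofold serially diluted from DMSO masters (10% DMSO in dilution series added).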

[1] = system: E. coli NB27273-CDY0030 (SHV12); experiment: MIC by broth microdilution, isogenic E. coli strain expressing SHV12; conditions: Escherichia coli, read-out: Strain 3 MIC
Method: Bacterial isolates were cultivated from −70° C. frozen stocks by two consecutive overnight passages at 35° C. in ambient air on 5% blood agar (Remel, Lenexa, Kans.). Quality control and P. aeruginosa ATCC 27853) is from the American Type Culture Collection (ATCC; Rockville, Md.) and PAO1 was received from Dr. K. Poole.
Strain NB27273 (BW25113 pspB::Km^r) was obtained from the Keio transposon insertion collection. The strain has the pspB gene replaced by a kanamycin resistance marker (BW25113 pspB::Km^r). This strain was cured of the transposon in pspB via FLP recombinase using published methodology. The resulting strain, BW25113 pspB, was used as a host for multicopy vectors expressing key β-lactamases. Multicopy plasmids directing constitutive expression of β-lactamases were established as follows: Synthetic, codon optimized genes encoding E. coli KPC2 and SHV12 β-lactamases were made by DNA2.0 (Palo Alto, Calif.). Each of the synthetic fragments were designed to contain NotI and NcoI restriction sites at their termini, allowing ligation into a NotI/NcoI digested pET28a(+) derivative for protein expression. […] The codon optimized nucleotide sequences and relevant primer recognition information is shown below:
The PCR products were then digested with XhoI and EcoRI and ligated into similarly digested plasmid pAH63-pstS(BlaP). Plasmid pAH63-pstS(BlaP) is a derivative of plasmid pAH63 (J Bacteriol: 183(21): 6384-6393) made by cloning the TEM-1 (bla) promoter and signal peptide encoding region from plasmid pBAD (J Bacteriol. 1995 July 177(14):4121-30) into plasmid pAH63. This fragment was PCR amplified from pBAD using primer pair E192 (ttcaCTGCAGtgaacgttgcgaagcaacggC) (SEQ ID NO:13) and E194 (TCGAggatcctcgagagcaaaaacaggaaggcaaaatgccg) (SEQ ID NO:14), digested with PstI and BamHI and inserted into similarly digested plasmid pAH63. Therefore, expression of β-lactamases from pAH63-pstS(BlaP) based constructs is constitutive and the signal sequence is provided to direct these proteins to the periplasm. […] To accomplish this, the inserts encompassing the β-lactamase genes, with the associated TEM promoter and signal sequences, were PCR amplified from their corresponding vectors using primer E269 (ccgTCTAGAcggatggcctttttgcgtttc) (SEQ ID NO:15) and E202 (aatcGAATTCttactgaccattaacgcccaagc) (SEQ ID NO:16) for the KPC2 construct and E204 (aatcGAATTCttaacgctgccagtgctcaatc) (SEQ ID NO:17) for the SHV12 construct. These fragments were then digested with XbaI and EcoRI, and each was inserted into pBAD18-kan that had been digested with the same enzymes to generate a pair of multicopy vectors expressing KPC2 and SHV12 respectively. These vectors were transformed into BW25113 pspB to generate strains NB27273-CDY0033 (expressing KPC2) and NB27273-CDY0030 (expressing SHV12). The pBAD18-kan vector also contains the TEM promoter region and signal sequence, (but lacks any intact β-lactamase genes) and was transformed into BW25113 pspB using standard protocols to generate the control strain NB27273-CDY0026. […] Susceptibility Testing
Minimal Inhibitory Concentrations (MICs) were determined by the broth microdilution method in accordance with Clinical and Laboratories Institute (CLSI) guidelines. In brief, fresh overnight bacterial cultures were suspended in sterile saline, and adjusted to a 0.5 McFarland turbidity standard. Bacterial suspensions were then diluted in cation adjusted Mueller-Hinton Broth (MHB II; BBL) to yield a final inoculum of approximately 5×10^5 colony-forming units (CFU)/mL. A master plate of antibiotics was prepared at a concentration equivalent to hundred-fold the highest desired final concentration in 100% dimethyl sulfoxide (DMSO). The master antibiotic plate was then diluted by serial twofold dilution with a multichannel pipette. The resulting dilution series of compounds were diluted 1:10 with sterile water leading to a 10% DMSO final concentration.

| SMILES | MIC (E. coli strain 25922) | MIC (E. coli containing KPC-2) | MIC [1] |
| --- | --- | --- | --- |
| Nc1nc(/C(=N/OC2(C(=O)O)CC2)C(=O)N[C@@H]2C(=O)N(S(=O)(=O)O)[C@@H]2Cn2ncc(CSC3Cn4cnc[n+]4C3)n2)cs1 (stereo partly drawn) [Example 139, (2R,3S)-3-((Z)-2-(2-aminothiazol-4-yl)-2-((1-carboxycyclopropoxy)imino)acetamido)-2-((4-(((6,7-dihydro-5H-pyrazolo[1,2-a][1,2,4]triazol-4-ium-6-yl)thio)methyl)-2H-1,2,3-triazol-2-yl)methyl)-4-oxoazetidine-1-sulfonate] | 1 µg/mL | 4 µg/mL | – |
| N=C(NCc1cnn(C[C@@H]2[C@H](NC(=O)/C(=N\OC3(C(=O)O)CC3)c3csc(N)n3)C(=O)N2S(=O)(=O)O)n1)N[C@H]1C[C@@H](N)C1 [Example 140, 1-(((Z)-(2-(((2R,3S)-2-((4-((3-((1 s,3S)-3-aminocyclobutyl)guanidino)methyl)-2H-1,2,3-triazol-2-yl)methyl)-4-oxo-1-sulfoazetidin-3-yl)amino)-1-(2-aminothiazol-4-yl)-2-oxoethylidene)amino)oxy)cyclopropanecarboxylic acid] | 0.25 µg/mL (≈ 0.39 µM) | 0.25 µg/mL (≈ 0.39 µM) | – |
| N=C(NCc1cnn(C[C@@H]2[C@H](NC(=O)/C(=N\OC3(C(=O)O)CC3)c3csc(N)n3)C(=O)N2S(=O)(=O)O)n1)N[C@H]1CCNC1 [Example 141, 1-(((Z)-(1-(2-aminothiazol-4-yl)-2-oxo-2-(((3S,4R)-2-oxo-4-((4-((3-((S)-pyrrolidin-3-yl)guanidino)methyl)-2H-1,2,3-triazol-2-yl)methyl)-1-sulfoazetidin-3-yl)amino)ethylidene)amino)oxy)cyclopropanecarboxylic acid] | 0.5 µg/mL (≈ 0.78 µM) | 0.5 µg/mL (≈ 0.78 µM) | – |
| Cc1nn(C[C@@H]2[C@H](NC(=O)/C(=N\OC3(C(=O)O)CC3)c3csc(N)n3)C(=O)N2S(=O)(=O)O)nc1CN [Example 143, 1-(((Z)-(2-(((2R,3S)-2-((4-(aminomethyl)-5-methyl-2H-1,2,3-triazol-2-yl)methyl)-4-oxo-1-sulfoazetidin-3-yl)amino)-1-(2-aminothiazol-4-yl)-2-oxoethylidene)amino)oxy)cyclopropanecarboxylic acid] | 0.5 µg/mL (≈ 0.92 µM) | 0.25 µg/mL (≈ 0.46 µM) | – |
| Cc1nn(C[C@@H]2[C@H](NC(=O)/C(=N\OC3(C(=O)O)CC3)c3csc(N)n3)C(=O)N2S(=O)(=O)O)nc1CNC(=N)NCCCN [Example 144, 1-(((Z)-(2-(((2R,3S)-2-((4-((3-(3-aminopropyl)guanidino)methyl)-5-methyl-2H-1,2,3-triazol-2-yl)methyl)-4-oxo-1-sulfoazetidin-3-yl)amino)-1-(2-aminothiazol-4-yl)-2-oxoethylidene)amino)oxy)cyclopropanecarboxylic acid] | 1 µg/mL (≈ 1.56 µM) | 1 µg/mL (≈ 1.56 µM) | – |
| CC(NC(=N)NCCCN)c1cnn(C[C@@H]2[C@H](NC(=O)/C(=N\OC3(C(=O)O)CC3)c3csc(N)n3)C(=O)N2S(=O)(=O)O)n1 (stereo partly drawn) [Example 145, 1-(((Z)-(2-(((2R,3S)-2-((4-(1-(3-(3-aminopropyl)guanidino)ethyl)-2H-1,2,3-triazol-2-yl)methyl)-4-oxo-1-sulfoazetidin-3-yl)amino)-1-(2-aminothiazol-4-yl)-2-oxoethylidene)amino)oxy)cyclopropanecarboxylic acid] | 0.5 µg/mL (≈ 0.778 µM) | 0.5 µg/mL (≈ 0.778 µM) | – |
| C[C@H](NCCCN)c1cnn(C[C@@H]2[C@H](NC(=O)/C(=N\OC3(C(=O)O)CC3)c3csc(N)n3)C(=O)N2S(=O)(=O)O)n1 [Example 146, 1-(((Z)-(2-(((2R,3S)-2-((4-((S)-1-((3-aminopropyl)amino)ethyl)-2H-1,2,3-triazol-2-yl)methyl)-4-oxo-1-sulfoazetidin-3-yl)amino)-1-(2-aminothiazol-4-yl)-2-oxoethylidene)amino)oxy)cyclopropanecarboxylic acid] | 0.5 µg/mL (≈ 0.832 µM) | 0.5 µg/mL (≈ 0.832 µM) | – |
| N=C(NCCOCCN)NCc1cnn(C[C@@H]2[C@H](NC(=O)/C(=N\OC3(C(=O)O)CC3)c3csc(N)n3)C(=O)N2S(=O)(=O)O)n1 [Example 147, 1-(((Z)-(2-(((2R,3S)-2-((4-((3-(2-(2-aminoethoxy)ethyl)guanidino)methyl)-2H-1,2,3-triazol-2-yl)methyl)-4-oxo-1-sulfoazetidin-3-yl)amino)-1-(2-aminothiazol-4-yl)-2-oxoethylidene)amino)oxy)cyclopropanecarboxylic acid] | 0.5 µg/mL (≈ 0.759 µM) | 0.5 µg/mL (≈ 0.759 µM) | – |
| CN(Cc1cnn(C[C@@H]2[C@H](NC(=O)/C(=N\OC3(C(=O)O)CC3)c3csc(N)n3)C(=O)N2S(=O)(=O)O)n1)C(=N)NCCCN [Example 148, 1-(((Z)-(2-(((2R,3S)-2-((4-((3-(3-aminopropyl)-1-methylguanidino)methyl)-2H-1,2,3-triazol-2-yl)methyl)-4-oxo-1-sulfoazetidin-3-yl)amino)-1-(2-aminothiazol-4-yl)-2-oxoethylidene)amino)oxy)cyclopropanecarboxylic acid] | 1 µg/mL (≈ 1.56 µM) | 1 µg/mL (≈ 1.56 µM) | – |
| NCC1CN(C(=O)OCc2cnn(C[C@@H]3[C@H](NC(=O)/C(=N\OC4(C(=O)O)CC4)c4csc(N)n4)C(=O)N3S(=O)(=O)O)n2)C1 [Example 149, 1-(((Z)-(2-(((2R,3S)-2-((4-(((3-(aminomethyl)azetidine-1-carbonyl)oxy)methyl)-2H-1,2,3-triazol-2-yl)methyl)-4-oxo-1-sulfoazetidin-3-yl)amino)-1-(2-aminothiazol-4-yl)-2-oxoethylidene)amino)oxy)cyclopropanecarboxylic acid] | 0.5 µg/mL (≈ 0.778 µM) | 0.5 µg/mL (≈ 0.778 µM) | – |
| N=C(NCc1cnn(C[C@@H]2[C@H](NC(=O)/C(=N\OC3(C(=O)O)CC3)c3csc(N)n3)C(=O)N2S(=O)(=O)O)n1)N1CC[C@H](N)C1 [Example 150, 1-(((Z)-(2-(((2R,3S)-2-((4-(((S)-3-aminopyrrolidine-1-carboximidamido)methyl)-2H-1,2,3-triazol-2-yl)methyl)-4-oxo-1-sulfoazetidin-3-yl)amino)-1-(2-aminothiazol-4-yl)-2-oxoethylidene)amino)oxy)cyclopropanecarboxylic acid] | 1 µg/mL (≈ 1.56 µM) | 0.5 µg/mL (≈ 0.78 µM) | – |
| CC(NCCCN)c1cnn(C[C@@H]2[C@H](NC(=O)/C(=N\OC3(C(=O)O)CC3)c3csc(N)n3)C(=O)N2S(=O)(=O)O)n1 (stereo partly drawn) [Example 151, 1-(((Z)-(2-(((2R,3S)-2-((4-(1-((3-aminopropyl)amino)ethyl)-2H-1,2,3-triazol-2-yl)methyl)-4-oxo-1-sulfoazetidin-3-yl)amino)-1-(2-aminothiazol-4-yl)-2-oxoethylidene)amino)oxy)cyclopropanecarboxylic acid] | 0.5 µg/mL (≈ 0.832 µM) | 0.5 µg/mL (≈ 0.832 µM) | – |
| NCCS(=O)(=O)Cc1cnn(C[C@@H]2[C@H](NC(=O)/C(=N\OC3(C(=O)O)CC3)c3csc(N)n3)C(=O)N2S(=O)(=O)O)n1 [Example 152, 1-(((Z)-(2-(((2R,3S)-2-((4-(((2-aminoethyl)sulfonyl)methyl)-2H-1,2,3-triazol-2-yl)methyl)-4-oxo-1-sulfoazetidin-3-yl)amino)-1-(2-aminothiazol-4-yl)-2-oxoethylidene)amino)oxy)cyclopropanecarboxylic acid] | 0.5 µg/mL (≈ 0.804 µM) | 0.5 µg/mL (≈ 0.804 µM) | – |
| C[C@H]1[C@H](NC(=O)/C(=N\OC(C)(C)C(=O)O)c2csc(N)n2)C(=O)N1S(=O)(=O)O [compound 1, reference compound] | – | – | > 32 µg/mL |
